Values of other authors, collected in US20030109682A1, “Maytansines and maytansine conjugates” (priority 2001, published 2003).

Columns and labels:
[1] = system: acute lymphocytic leukemia, breast carcinoma, ovarian cancer, thymoma, melanoma, and non-small scale lung cancer; conditions: Phase I, patients with acute lymphocytic leukemia
[2] = Phase II trials

Structure (SMILES): COc1cc2cc(c1Cl)N(C)C(=O)C[C@H](OC(=O)[C@H](C)N(C)C(C)=O)[C@]1(C)O[C@H]1[C@H](C)[C@@H]1C[C@@](O)(NC(=O)O1)[C@H](OC)/C=C/C=C(\C)C2 [Maytansine]
- clinical response [1]: encouraging responses
- gastrointestinal toxicity [2]: manageable gastrointentinal toxicity
- neurotoxicity at the site of administration [2]: pain of such magnitude as to prevent further administration
